Assay results from ChEMBL document CHEMBL4007485, “Examining the structure-activity relationship of benzopyran-based inhibitors of the hypoxia inducible factor-1 pathway” (Bioorg Med Chem Lett, 2017).

Test system: not listed separately
Test: Inhibition of HIF-1 pathway in human LN229 cells harboring HRE-AP assessed sa reduction in VEGF transcription pretreated for 1 hr under normoxic condition followed by 24 hrs incubation under hypoxic condition by HRE-[…] reporter gene assay
Type: cell-based
Conditions: LN-229

First: CC1(C)C=Cc2nc(CN(C3CCC3)S(=O)(=O)c3ccc(OC(F)(F)F)cc3)ccc2O1
Second: COc1ccc(S(=O)(=O)N(Cc2ccc3c(n2)C=CC(C)(C)O3)C2CCC2)cc1
The IC50 of the first is 2.2-fold higher: 4 µM for the first, 1.8 µM for the second. The second is the more potent here.

Going from `COc1ccc(S(=O)(=O)N(Cc2ccc3c(n2)CCC(C)(C)O3)C2CCC2)cc1OC` to `COc1ccc(S(=O)(=O)N(Cc2ccc3c(c2)CCC(C)(C)O3)C2CCC2)cc1OC`, the IC50 rises from 0.25 µM to 0.39 µM (1.6-fold).

Compared with `COc1cccc(S(=O)(=O)N(Cc2ccc3c(c2)C=CC(C)(C)O3)c2ccccc2)c1`, `COc1ccc(S(=O)(=O)N(Cc2ccc3c(c2)C=CC(C)(C)O3)c2ccccc2)cc1OC` is 1.7-fold lower in IC50: 1 µM for the first, 0.59 µM for the second.

First: CCOc1ccc(S(=O)(=O)N(Cc2ccc3c(c2)C=CC(C)(C)O3)C2CCCC2)cc1
Second: CCOc1ccc(S(=O)(=O)N(Cc2ccc3c(c2)C=CC(C)(C)O3)C2CCC2)cc1
The IC50 of the first is higher: over 5 µM for the first, 4.4 µM for the second.

`COc1ccc(S(=O)(=O)N(Cc2cc3c(cc2C)OC(C)(C)C=C3)c2ccccc2)cc1OC` and `COc1ccc(S(=O)(=O)N(Cc2cc3c(cc2Br)OC(C)(C)C=C3)c2ccccc2)cc1OC` are within 1.5-fold of each other in IC50: 3.3 µM for the first, 3.1 µM for the second.

Compared with `COc1ccc(S(=O)(=O)N(Cc2ccc3c(c2)C=CC(C)(C)O3)C2CCCC2)c(OC)c1`, `COc1ccc(S(=O)(=O)N(Cc2ccc3c(c2)C=CC(C)(C)O3)C2CCCC2)cc1OC` is 3-fold lower in IC50: 1.5 µM for the first, 0.5 µM for the second. The second is the more potent here.

First: COc1ccc(S(=O)(=O)N(Cc2ccc3c(c2)C=CC(C)(C)O3)C2CCC2)cc1OC
Second: COc1ccc(S(=O)(=O)N(Cc2ccc3c(n2)C=CC(C)(C)O3)C2CCC2)cc1OC
The IC50 of the first is 2.7-fold higher: 0.75 µM for the first, 0.28 µM for the second.

`CC1(C)C=Cc2cc(CN(c3ccccc3)S(=O)(=O)c3ccc(F)c(F)c3)ccc2O1` and `CC1(C)C=Cc2cc(CN(c3ccccc3)S(=O)(=O)c3ccc(C#N)cc3)ccc2O1` cannot be ordered by IC50: over 5 µM for the first, over 5 µM for the second.

First: COc1ccc(S(=O)(=O)N(Cc2ccc3c(c2)CCC(C)(C)O3)c2ccccc2)cc1
Second: COc1ccc(S(=O)(=O)N(Cc2ccc3c(c2)CCC(C)(C)O3)c2ccccc2)cc1OC
The IC50 of the first is 3.3-fold higher: 3.2 µM for the first, 0.98 µM for the second. The second is the more potent here.

Going from `COc1ccc(S(=O)(=O)N(Cc2ccc3c(c2)C=CC(C)(C)O3)CC2COC2)cc1OC` to `COc1ccc(S(=O)(=O)N(Cc2ccc3c(c2)CCC(C)(C)O3)CC2COC2)cc1OC`, the IC50 rises from 4 µM to over 5 µM.

Compared with `COc1ccc(S(=O)(=O)N(Cc2ccc3c(c2)OCO3)C2CCC2)cc1OC`, `COc1ccc(S(=O)(=O)N(Cc2ccc3c(c2)CCO3)C2CCC2)cc1OC` is 2.7-fold higher in IC50: 1.3 µM for the first, 3.5 µM for the second.

`COc1ccc(S(=O)(=O)N(Cc2ccc3c(c2)OCO3)c2ccccc2)cc1OC` and `COc1ccc(S(=O)(=O)N(Cc2ccc3nonc3c2)c2ccccc2)cc1OC` cannot be ordered by IC50: over 5 µM for the first, over 5 µM for the second.

`CC1(C)C=Cc2cc(CN(C3CCC3)S(=O)(=O)c3ccc(OC(F)(F)F)cc3)ccc2O1` and `CC1(C)C=Cc2cc(CN(C3CCC3)S(=O)(=O)c3ccc(Br)cc3)ccc2O1` cannot be ordered by IC50: over 5 µM for the first, over 5 µM for the second.

First: COc1ccc(S(=O)(=O)N(Cc2cc(C)c3c(c2)C=CC(C)(C)O3)c2ccccc2)cc1OC
Second: COc1ccc(S(=O)(=O)N(Cc2cccc3c2OC(C)(C)C=C3)c2ccccc2)cc1OC
The IC50 of the first is 1.8-fold higher: 3.2 µM for the first, 1.8 µM for the second.

Compared with `COc1ccc(CCN(Cc2ccc3c(n2)C=CC(C)(C)O3)S(=O)(=O)c2ccc(OC)c(OC)c2)cc1OC`, `CC1(C)C=Cc2nc(CN(C3CCC3)S(=O)(=O)c3ccc(CBr)cc3)ccc2O1` is lower in IC50: over 5 µM for the first, 2.5 µM for the second. The second is the more potent here.

Going from `CC1(C)C=Cc2cc(CN(C3CCC3)S(=O)(=O)c3ccc(F)c(F)c3)ccc2O1` to `CC1(C)C=Cc2cc(CN(C3CCCC3)S(=O)(=O)c3ccc(CBr)cc3)ccc2O1`, the IC50 falls from 4.6 µM to 3 µM (1.5-fold). The second is the more potent here.

`CC1(C)C=Cc2cc(CN(c3ccccc3)S(=O)(=O)c3ccc(OC(F)(F)F)cc3)ccc2O1` and `Cc1noc(C)c1S(=O)(=O)N(Cc1ccc2c(c1)C=CC(C)(C)O2)C1CCC1` cannot be ordered by IC50: over 5 µM for the first, over 5 µM for the second.

First: COc1ccc(S(=O)(=O)N(Cc2ccc([N+](=O)[O-])cc2)C2CCC2)cc1OC
Second: COc1ccc(CN(C2CCC2)S(=O)(=O)c2ccc(OC)c(OC)c2)cc1
The IC50 of the first is higher: over 5 µM for the first, 3.9 µM for the second. The second is the more potent here.

Compared with `COc1ccc(S(=O)(=O)N(Cc2ccc3c(n2)CCC(C)(C)O3)C2CCC2)cc1`, `COc1ccc(CN(C2CCC2)S(=O)(=O)c2ccc(OC)c(OC)c2)c(OC)c1` is higher in IC50: 1.2 µM for the first, over 5 µM for the second.

`COc1ccc(S(=O)(=O)N(Cc2ccc[nH]2)C2CCC2)cc1OC` and `COc1ccc(S(=O)(=O)N(Cc2ccccc2)C2CCC2)cc1OC` cannot be ordered by IC50: over 5 µM for the first, over 5 µM for the second.

Going from `COc1ccc(S(=O)(=O)N(Cc2ccccc2[N+](=O)[O-])C2CCC2)cc1OC` to `COc1ccc(S(=O)(=O)N(Cc2ccc(CN3CCOCC3)cc2)C2CCC2)cc1OC`, the IC50 falls from over 5 µM to 1 µM.

Test system: not listed separately
Test: Inhibition of HIF-1 pathway in human LN229 cells harboring HRE-AP by alkaline phosphatase reporter gene assay
Type: cell-based
Conditions: LN-229

`COc1ccc(S(=O)(=O)N(Cc2ccc3c(c2)C=CC(C)(C)O3)c2ccccc2)cc1OC` showed an IC50 of 0.6 µM.

Test system: LN-229
Test: Antitumor activity against human LN229 cells xenografted in nude mouse assessed as tumor growth inhibition at 60 mg/kg administered for 5 days in a week for 10 to 12 weeks relative to control
Type: functional
Conditions: not given

In the case of `COc1ccc(S(=O)(=O)N(Cc2ccc3c(c2)C=CC(C)(C)O3)c2ccccc2)cc1OC`, the “fold change (FC)” value is reported as 6.
